Assay results reported in US20030203373A1 (priority 2002, published 2003).
Where “and” joins values, the source holds several entries; their conditions need not be identical. Identical values can stand only once. Like-named read-outs stand apart in the source and are kept apart here. Square brackets hold non-standard residues; d marks the D form. Peptide text beside a SMILES is read from it. pGlu = O=C1CC[C@@H](C(=O)O)N1

Biological target: T1, ACE from pig kidney (Sus scrofa, UniProt F1RRW5)
T1 construct: 1 mU ACE from pig kidney (EC 3.4.15.1 (Sigma)); purchased Sigma; host or cells: pig kidney (tissue-derived enzyme)
T1 sequence (F1RRW5 34-1309): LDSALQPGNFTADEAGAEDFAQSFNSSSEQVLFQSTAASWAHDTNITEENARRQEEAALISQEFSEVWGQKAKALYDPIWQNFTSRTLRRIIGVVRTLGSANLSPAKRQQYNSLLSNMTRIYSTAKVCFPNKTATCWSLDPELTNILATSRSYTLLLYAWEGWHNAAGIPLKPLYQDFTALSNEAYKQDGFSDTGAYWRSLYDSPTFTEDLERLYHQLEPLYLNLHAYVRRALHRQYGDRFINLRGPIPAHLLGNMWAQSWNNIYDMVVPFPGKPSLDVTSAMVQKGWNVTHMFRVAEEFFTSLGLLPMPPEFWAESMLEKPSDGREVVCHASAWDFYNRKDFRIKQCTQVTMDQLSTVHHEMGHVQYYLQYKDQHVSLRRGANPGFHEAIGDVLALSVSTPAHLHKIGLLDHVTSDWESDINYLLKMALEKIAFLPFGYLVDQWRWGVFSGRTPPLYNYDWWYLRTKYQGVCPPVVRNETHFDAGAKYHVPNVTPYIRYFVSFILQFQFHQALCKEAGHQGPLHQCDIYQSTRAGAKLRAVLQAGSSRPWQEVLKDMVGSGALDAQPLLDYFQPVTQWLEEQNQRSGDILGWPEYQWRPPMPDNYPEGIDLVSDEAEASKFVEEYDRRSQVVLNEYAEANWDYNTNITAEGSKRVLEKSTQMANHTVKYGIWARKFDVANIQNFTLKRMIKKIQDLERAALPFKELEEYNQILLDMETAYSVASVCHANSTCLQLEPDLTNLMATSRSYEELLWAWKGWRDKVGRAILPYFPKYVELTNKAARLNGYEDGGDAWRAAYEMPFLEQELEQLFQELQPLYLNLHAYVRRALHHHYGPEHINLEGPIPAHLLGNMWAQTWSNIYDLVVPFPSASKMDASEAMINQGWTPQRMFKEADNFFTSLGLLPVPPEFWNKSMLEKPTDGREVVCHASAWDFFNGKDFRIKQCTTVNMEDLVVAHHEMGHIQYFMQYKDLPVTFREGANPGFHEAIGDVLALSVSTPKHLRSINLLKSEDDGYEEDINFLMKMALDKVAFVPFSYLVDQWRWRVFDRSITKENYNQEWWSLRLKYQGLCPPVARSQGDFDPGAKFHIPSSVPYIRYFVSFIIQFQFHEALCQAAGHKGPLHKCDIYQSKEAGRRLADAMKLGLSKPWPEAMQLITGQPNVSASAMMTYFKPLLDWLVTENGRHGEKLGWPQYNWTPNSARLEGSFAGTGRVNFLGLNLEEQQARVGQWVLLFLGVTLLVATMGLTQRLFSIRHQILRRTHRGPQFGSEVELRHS
Assay: biochemical
Format: biochemical
Text: These peptides were investigated for their inhibitory effect using an in vitro-ACE-inhibitor-assay with an angiotensin-converting-enzyme derived from pig kidney. Hippuryl-histidyl-leucin was used as a substrate. […] A concrete experimental description is given below.
The principle of the ACE-inhibition-assay was established by Chejung, H. S., Cushman, D. W.: “Inhibition of homogenous angiotensin converting enzyme of rabbit lung by synthetic venom peptides of Bothrops jararaca.” in Biochimica et Biophysica Acta 293, 451-563 (1973).
The assay was performed in 96 well HTRF-plates (Packard). The concentrations used for each well were:
1 mU ACE from pig kidney (EC 3.4.15.1 (Sigma)) in 30 μl of assay buffer (25 mM HEPES; 0,3 M NaCl, pH 8,2) and 20 μl inhibitor dissolved in assay buffer (0,35-200 μM). The reaction was started by adding 50 μl of 2 mM hippuryl-histidyl-leucin (Sigma) in assay buffer. The reaction was performed at room temperature (22° C.) for 30 minutes and terminated by adding 50 μl of 2 M NaOH. Afterwards 50 μl of 0,5% ortho-phtalaldehyd (Sigma) in methanol were added, 5 minutes later followed by 50 μl of 2,5 M HCl-solution to stabilize the developed fluorescence product.
The results were used to calculate the % inhibition. The IC50-values were determined graphically from a curve showing the dose-reaction ratio.
In order to minimize errors due to time-dependent differences, all pipetting steps were performed in a precise time schedule.

[1] = inhibitor 0.78125 μM, replicates A-D
[2] = inhibitor 1.5625 μM, replicates A-D
[3] = inhibitor 3.125 μM, replicates A-D
[4] = inhibitor 6.25 μM, replicates A-D
[5] = inhibitor 12.5 μM, replicates A-D
[6] = inhibitor 25 μM, replicates A-D
[7] = inhibitor 50 μM, replicates A-D
[8] = inhibitor 100 μM, replicates A-D
[9] = inhibitor 200 μM, replicates A-D

CC[C@H](C)[C@H](NC(=O)[C@H](CCC(N)=O)NC(=O)[C@@H]1CCCN1C(=O)[C@H](CCCNC(=N)N)NC(=O)[C@@H]1CCCN1C(=O)[C@H](Cc1c[nH]c2ccccc12)NC(=O)[C@@H]1CCC(=O)N1)C(=O)N1CCC[C@H]1C(=O)N1CCC[C@H]1C(=O)O [BPP9a, reference compound]
IC50: 0.097 µM
fluorescence reading (ACE Inhibitor Assay) (inhibitor 0.0097 μM, replicates A-D): 710140 and 732003 and 790803 and 704452
% inhibition (ACE Inhibitor Assay) (inhibitor 0.0097 μM, replicates A-D, 0.0097 µM): 17.32% and 14.76% and 7.86% and 17.99%
fluorescence reading (ACE Inhibitor Assay) (inhibitor 0.0195 μM, replicates A-D): 651703 and 661931 and 697146 and 649942
% inhibition (ACE Inhibitor Assay) (inhibitor 0.0195 μM, replicates A-D, 0.0195 µM): 22.97% and 18.85% and 24.38%
fluorescence reading (ACE Inhibitor Assay) (inhibitor 0.039 μM, replicates A-D): 555538 and 591749 and 454421 and 628809
% inhibition (ACE Inhibitor Assay) (inhibitor 0.039 μM, replicates A-D, 0.039 µM): 35.44% and 31.2% and 47.3% and 26.86%
fluorescence reading (ACE Inhibitor Assay) (inhibitor 0.078 μM, replicates A-D): 487053 and 445495 and 462323 and 446174
% inhibition (ACE Inhibitor Assay) (inhibitor 0.078 μM, replicates A-D, 0.078 µM): 48.35% and 46.37% and 48.26%
fluorescence reading (ACE Inhibitor Assay) (inhibitor 0.15625 μM, replicates A-D): 317736 and 311280 and 262186 and 309352
% inhibition (ACE Inhibitor Assay) (inhibitor 0.15625 μM, replicates A-D, 0.15625 µM): 64.08% and 69.83% and 64.3%
fluorescence reading (ACE Inhibitor Assay) (inhibitor 0.3125 μM, replicates A-D): 143514 and 147997 and 149103 and 141700
% inhibition (ACE Inhibitor Assay) (inhibitor 0.3125 μM, replicates A-D, 0.3125 µM): 83.22% and 83.09% and 83.96%
fluorescence reading (ACE Inhibitor Assay) (inhibitor 0.625 μM, replicates A-D): 60333 and 60929 and 57514 and 55616
% inhibition (ACE Inhibitor Assay) (inhibitor 0.625 μM, replicates A-D, 0.625 µM): 93.43% and 93.82% and 94.05%
fluorescence reading (ACE Inhibitor Assay) (inhibitor 1.25 μM, replicates A-D): 27485 and 26994 and 27156 and 25833
% inhibition (ACE Inhibitor Assay) (inhibitor 1.25 μM, replicates A-D, 1.25 µM): 97.4% and 97.38% and 97.54%
fluorescence reading (ACE Inhibitor Assay) (inhibitor 2.5 μM, replicates A-D): 13903 and 14148 and 15119 and 13979
% inhibition (ACE Inhibitor Assay) (inhibitor 2.5 μM, replicates A-D, 2.5 µM): 98.91% and 98.79% and 98.93%
fluorescence reading (ACE Inhibitor Assay) (inhibitor 5 μM, replicates A-D): 9634 and 9626 and 9656 and 10561
% inhibition (ACE Inhibitor Assay) (inhibitor 5 μM, replicates A-D, 5 µM): 99.33%
inhibition at 0.0195 µM (read-out: % inhibition (ACE Inhibitor Assay), inhibitor 0.0195 μM, replicates A-D): 24.2%
inhibition at 0.078 µM (read-out: % inhibition (ACE Inhibitor Assay), inhibitor 0.078 μM, replicates A-D): 43.5%
inhibition at 0.15625 µM (read-out: % inhibition (ACE Inhibitor Assay), inhibitor 0.15625 μM, replicates A-D): 63.3%
inhibition at 0.3125 µM (read-out: % inhibition (ACE Inhibitor Assay), inhibitor 0.3125 μM, replicates A-D): 83.8%
inhibition at 0.625 µM (read-out: % inhibition (ACE Inhibitor Assay), inhibitor 0.625 μM, replicates A-D): 93.5%
inhibition at 1.25 µM (read-out: % inhibition (ACE Inhibitor Assay), inhibitor 1.25 μM, replicates A-D): 97.3%
inhibition at 2.5 µM (read-out: % inhibition (ACE Inhibitor Assay), inhibitor 2.5 μM, replicates A-D): 98.9%
inhibition at 5 µM (read-out: % inhibition (ACE Inhibitor Assay), inhibitor 5 μM, replicates A-D): 99.4%

CC(C)C[C@H](NC(=O)[C@@H]1CCCN1C(=O)[C@@H](N)CO)C(=O)N1CCC[C@H]1C(=O)N[C@@H](CCC(=O)O)C(=O)N[C@H](C(=O)N1CCC[C@H]1C(=O)N1CCC[C@H]1C(=O)O)C(C)C [Peptide S547]
IC50 (ACE from pig kidney, determined graphically, read-out: IC50-value (ACE inhibition)): 27 µM
fluorescence reading (ACE Inhibitor Assay) (inhibitor 0.39 μM, replicates A-D): 968576 and 976911 and 1033152 and 933502
% inhibition (ACE Inhibitor Assay) (inhibitor 0.39 μM, replicates A-D, 0.39 µM): 6.82% and 6.02% and 0.575% and 10.22%
fluorescence reading (ACE Inhibitor Assay) [1]: 935415 and 959358 and 928034 and 939702
inhibition at 0.78125 µM [1]: 10%
% inhibition (ACE Inhibitor Assay) (inhibitor 0.78125 μM, replicates A-D, 0.78125 µM): 7.72% and 10.75% and 9.62%
fluorescence reading (ACE Inhibitor Assay) [2]: 885259 and 942952 and 905782 and 900439
inhibition at 1.5625 µM [2]: 14.9%
% inhibition (ACE Inhibitor Assay) (inhibitor 1.5625 μM, replicates A-D, 1.5625 µM): 9.3% and 12.9% and 13.42%
fluorescence reading (ACE Inhibitor Assay) [3]: 853233 and 874120 and 919377 and 814056
inhibition at 3.125 µM [3]: 18%
% inhibition (ACE Inhibitor Assay) (inhibitor 3.125 μM, replicates A-D, 3.125 µM): 15.96% and 11.6% and 21.78%
fluorescence reading (ACE Inhibitor Assay) [4]: 737068 and 749780 and 773384 and 715138
inhibition at 6.25 µM [4]: 29.2%
% inhibition (ACE Inhibitor Assay) (inhibitor 6.25 μM, replicates A-D, 6.25 µM): 28% and 25.72% and 31.35%
fluorescence reading (ACE Inhibitor Assay) [5]: 661504 and 674042 and 682861 and 660883
inhibition at 12.5 µM [5]: 36.5%
% inhibition (ACE Inhibitor Assay) (inhibitor 12.5 μM, replicates A-D, 12.5 µM): 35.33% and 34.48% and 36.6%
fluorescence reading (ACE Inhibitor Assay) [6]: 561516 and 529553 and 559590 and 501835
inhibition at 25 µM [6]: 46.2%
% inhibition (ACE Inhibitor Assay) (inhibitor 25 μM, replicates A-D, 25 µM): 49.3% and 46.4% and 52%
fluorescence reading (ACE Inhibitor Assay) [7]: 367055 and 382045 and 460226 and 346051
inhibition at 50 µM [7]: 65%
% inhibition (ACE Inhibitor Assay) (inhibitor 50 μM, replicates A-D, 50 µM): 63.59% and 56.02% and 67.07%
fluorescence reading (ACE Inhibitor Assay) [8]: 229409 and 229360 and 232610 and 214324
inhibition at 100 µM [8]: 78.4%
% inhibition (ACE Inhibitor Assay) (inhibitor 100 μM, replicates A-D, 100 µM): 78.05% and 79.82%
fluorescence reading (ACE Inhibitor Assay) [9]: 115847 and 125213 and 123605 and 113488
inhibition at 200 µM [9]: 89.4%
% inhibition (ACE Inhibitor Assay) (inhibitor 200 μM, replicates A-D, 200 µM): 88.45% and 88.6% and 89.58%

CC[C@H](C)[C@H](NC(=O)[C@H](CC(C)C)NC(=O)[C@@H]1CCCN1C(=O)[C@H](CCSC)NC(=O)[C@@H]1CCC(=O)N1)C(=O)N1CCC[C@H]1C(=O)N[C@@H](CCCNC(=N)N)C(=O)N[C@@H](C)C(=O)N[C@@H](CO)C(=O)N[C@@H](CC(=O)O)C(=O)N[C@@H](CCC(=O)O)C(=O)N[C@@H](CC(N)=O)C(=O)N[C@H](C(=O)N1CCC[C@H]1C(=O)N1CCC[C@H]1C(=O)O)C(C)C [Peptide S682] ([pGlu]MPLIPRASDENVPP-OH)
IC50: 150 µM
